According to US20110082101A1, “COMBINATIONS COMPRISING EPOTHILONES AND ANTI-METABOLITES” (priority 2002, published 2011):

Tests used:
advanced renal cancer = experiment: Treatment of a human patient having advanced renal cancer with epothilone B plus capecitabine; type: in vivo; conditions: Example 1, one human patient, combination: epothilone B 0.5 mg/m^2 five minutes bolus infusion weekly for 3 weeks, one week off, plus capecitabine orally 1250 mg/m^2 twice daily for two weeks, cycle repeated several times
Procedure: A human patient having advanced renal cancer receives 0.5 mg/m^2 of epothilone B as a five minutes bolus infusion weekly for 3 weeks followed by one week off. Starting in the second week of the epothilone treatment and at least two hours after said treatment, capecitabine is applied orally to said patient twice daily at a dosage of 1250 mg/m^2 for two weeks followed by one week off. The whole treatment cycle is applied to the patient several times. Stable disease is observed for about 8 months.

advanced colon cancer = experiment: Treatment of a human patient having advanced colon cancer with epothilone B plus gemcitabine hydrochloride; type: in vivo; conditions: Example 5, one human patient, combination: epothilone B 0.5 mg/m^2 five minutes bolus infusion weekly for 3 weeks, one week off, plus gemcitabine hydrochloride 800 mg/m^2 twice daily, cycle repeated several times
Procedure: A human patient having advanced colon cancer receives 0.5 mg/m^2 of epothilone B as a five minutes bolus infusion weekly for 3 weeks followed by one week off. Immediately following said treatment, gemcitabine hydrochloride is applied orally to said patient twice daily at a dosage of 800 mg/m^2. The whole treatment cycle is applied to the patient several times. Stable disease is observed for about […] months.

SMILES: C/C(=C\c1csc(C)n1)[C@@H]1C[C@@H]2O[C@]2(C)CCC[C@H](C)[C@H](O)[C@@H](C)C(=O)C(C)(C)[C@@H](O)CC(=O)O1 [epothilone B]
- Stable disease observed for (duration) (advanced renal cancer): about 8 months
- Stable disease observed for (duration) (advanced colon cancer): about 3%
